Laboratory results: PubChem BioAssay (NCI)
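Growth conditions: 96-well plates. Treatment: test compound, 48 hours, 5 concentrations. Analysis: linear interpolation between bracketing concentrations; unreached endpoints set to highest concentration. TGI is the concentration that stops growth completely.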

Tests used:
Assay in all cases: inhibition of tumour cell growth, NCI panel, 48 h
DMS 114 small cell lung = tested on: DMS 114 small cell lung
CAKI-1 renal = tested on: CAKI-1 renal
OVCAR-3 ovarian = tested on: OVCAR-3 ovarian
M19-MEL melanoma = tested on: M19-MEL melanoma
K-562 leukemia = tested on: K-562 leukemia
786-0 renal = tested on: 786-0 renal
HL-60(TB) leukemia = tested on: HL-60(TB) leukemia
ACHN renal = tested on: ACHN renal
SK-MEL-2 melanoma = tested on: SK-MEL-2 melanoma
UO-31 renal = tested on: UO-31 renal
OVCAR-8 ovarian = tested on: OVCAR-8 ovarian
HCT-15 colon = tested on: HCT-15 colon
HOP-18 NSCLC = tested on: HOP-18 NSCLC
HT29 colon = tested on: HT29 colon
OVCAR-4 ovarian = tested on: OVCAR-4 ovarian
RXF 393 renal = tested on: RXF 393 renal
SF-539 CNS = tested on: SF-539 CNS
EKVX NSCLC = tested on: EKVX NSCLC
SK-OV-3 ovarian = tested on: SK-OV-3 ovarian
U251 CNS = tested on: U251 CNS
RXF-631 renal = tested on: RXF-631 renal
XF 498 CNS = tested on: XF 498 CNS
SW-620 colon = tested on: SW-620 colon
SN12C renal = tested on: SN12C renal
M14 melanoma = tested on: M14 melanoma
TK-10 renal = tested on: TK-10 renal
NCI-H23 lung = tested on: NCI-H23 lung
SNB-78 CNS = tested on: SNB-78 CNS
MALME-3M melanoma = tested on: MALME-3M melanoma
SK-MEL-5 melanoma = tested on: SK-MEL-5 melanoma
HOP-62 NSCLC = tested on: HOP-62 NSCLC
SNB-19 CNS = tested on: SNB-19 CNS
UACC-257 melanoma = tested on: UACC-257 melanoma
DMS 273 small cell lung = tested on: DMS 273 small cell lung
UACC-62 melanoma = tested on: UACC-62 melanoma
A549 NSCLC = tested on: A549 NSCLC
IGROV1 ovarian = tested on: IGROV1 ovarian
LOX IMVI melanoma = tested on: LOX IMVI melanoma
SF-295 CNS = tested on: SF-295 CNS
DLD-1 colon = tested on: DLD-1 colon
RPMI-8226 leukemia = tested on: RPMI-8226 leukemia
COLO 205 colon = tested on: COLO 205 colon
HOP-92 NSCLC = tested on: HOP-92 NSCLC
CCRF-CEM leukemia = tested on: CCRF-CEM leukemia
SK-MEL-28 melanoma = tested on: SK-MEL-28 melanoma
SNB-75 CNS = tested on: SNB-75 CNS
MOLT-4 leukemia = tested on: MOLT-4 leukemia
KM20L2 colon = tested on: KM20L2 colon
NCI-H460 lung = tested on: NCI-H460 lung
SR leukemia = tested on: SR leukemia
HCT-116 colon = tested on: HCT-116 colon
LXFL 529 NSCLC = tested on: LXFL 529 NSCLC
NCI-H522 lung = tested on: NCI-H522 lung
A498 renal = tested on: A498 renal
SF-268 CNS = tested on: SF-268 CNS
NCI-H226 lung = tested on: NCI-H226 lung
OVCAR-5 ovarian = tested on: OVCAR-5 ovarian
KM12 colon = tested on: KM12 colon
HCC-2998 colon = tested on: HCC-2998 colon

In the case of `CC1OC(n2cc(Cl)c(=O)[nH]c2=O)C=C(OC(=O)c2ccccc2)C1=O` (stereo not drawn), the TGI (DMS 114 small cell lung) was > 100 µM, the TGI (CAKI-1 renal) was > 100 µM and the TGI (OVCAR-3 ovarian) was > 100 µM. For the same compound, the TGI (M19-MEL melanoma) was > 100 µM, the TGI (K-562 leukemia) was > 100 µM and the TGI (786-0 renal) was > 100 µM. For the same compound, the TGI (HL-60(TB) leukemia) was > 100 µM, the TGI (ACHN renal) was > 100 µM and the TGI (SK-MEL-2 melanoma) was > 100 µM. For the same compound, the TGI (UO-31 renal) was > 100 µM, the TGI (OVCAR-8 ovarian) was > 100 µM and the TGI (HCT-15 colon) was > 100 µM. For the same compound, the TGI (HOP-18 NSCLC) was > 100 µM, the TGI (HT29 colon) was > 100 µM and the TGI (OVCAR-4 ovarian) was > 100 µM. The TGI (RXF 393 renal) was > 100 µM, the TGI (SF-539 CNS) was > 100 µM and the TGI (EKVX NSCLC) was > 100 µM. For the same compound, the TGI (SK-OV-3 ovarian) was > 100 µM, the TGI (U251 CNS) was > 100 µM and the TGI (RXF-631 renal) was > 100 µM. The TGI (XF 498 CNS) was > 100 µM, the TGI (SW-620 colon) was > 100 µM and the TGI (SN12C renal) was > 100 µM. The TGI (M14 melanoma) was > 100 µM, the TGI (TK-10 renal) was > 100 µM and the TGI (NCI-H23 lung) was > 100 µM. For the same compound, the TGI (SNB-78 CNS) was > 100 µM, the TGI (MALME-3M melanoma) was > 100 µM and the TGI (SK-MEL-5 melanoma) was > 100 µM. For the same compound, the TGI (HOP-62 NSCLC) was > 100 µM, the TGI (SNB-19 CNS) was > 100 µM and the TGI (UACC-257 melanoma) was > 100 µM. The TGI (DMS 273 small cell lung) was > 100 µM, the TGI (UACC-62 melanoma) was > 100 µM and the TGI (A549 NSCLC) was > 100 µM. The TGI (IGROV1 ovarian) was > 100 µM, the TGI (LOX IMVI melanoma) was > 100 µM and the TGI (SF-295 CNS) was > 100 µM. For the same compound, the TGI (DLD-1 colon) was > 100 µM, the TGI (RPMI-8226 leukemia) was > 100 µM and the TGI (COLO 205 colon) was > 100 µM. For the same compound, the TGI (HOP-92 NSCLC) was > 100 µM, the TGI (CCRF-CEM leukemia) was > 100 µM and the TGI (SK-MEL-28 melanoma) was > 100 µM. For the same compound, the TGI (SNB-75 CNS) was > 100 µM, the TGI (MOLT-4 leukemia) was > 100 µM and the TGI (KM20L2 colon) was > 100 µM. For the same compound, the TGI (NCI-H460 lung) was > 100 µM.

With `COc1ccc(-c2nc(Sc3c([N+](=O)[O-])ncn3C)n[nH]2)cc1` the TGI (SR leukemia) was 37.3 µM, the TGI (DMS 114 small cell lung) was 6.64 µM and the TGI (CAKI-1 renal) was > 100 µM. For the same compound, the TGI (M19-MEL melanoma) was > 100 µM, the TGI (K-562 leukemia) was > 100 µM and the TGI (HCT-116 colon) was > 100 µM. It also gave a TGI (LXFL 529 NSCLC) of 13 µM, a TGI (786-0 renal) of 13.8 µM and a TGI (ACHN renal) of 23.1 µM. The TGI (SK-MEL-2 melanoma) was 4.95 µM, the TGI (UO-31 renal) was > 100 µM and the TGI (OVCAR-8 ovarian) was 5.4 µM. It also gave a TGI (HOP-18 NSCLC) of 5.53 µM, a TGI (OVCAR-4 ovarian) of 81.2 µM and a TGI (RXF 393 renal) of 4.28 µM. For the same compound, the TGI (SF-539 CNS) was 4.18 µM, the TGI (EKVX NSCLC) was > 100 µM and the TGI (SK-OV-3 ovarian) was > 100 µM. It also gave a TGI (U251 CNS) of 5.55 µM, a TGI (RXF-631 renal) of 22.2 µM and a TGI (XF 498 CNS) of 9.78 µM. The TGI (SW-620 colon) was > 100 µM, the TGI (NCI-H522 lung) was 5.75 µM and the TGI (SN12C renal) was 8.23 µM. It also gave a TGI (M14 melanoma) of 4.96 µM, a TGI (A498 renal) of 37.6 µM and a TGI (TK-10 renal) of 44.2 µM. The TGI (NCI-H23 lung) was 3.97 µM, the TGI (SNB-78 CNS) was > 100 µM and the TGI (MALME-3M melanoma) was 9.9 µM. For the same compound, the TGI (SK-MEL-5 melanoma) was 6.83 µM, the TGI (HOP-62 NSCLC) was 89.9 µM and the TGI (SNB-19 CNS) was 39.3 µM. For the same compound, the TGI (UACC-257 melanoma) was 39.2 µM, the TGI (SF-268 CNS) was 21.1 µM and the TGI (DMS 273 small cell lung) was 4.77 µM. For the same compound, the TGI (UACC-62 melanoma) was 11.1 µM, the TGI (A549 NSCLC) was > 100 µM and the TGI (IGROV1 ovarian) was 77.3 µM. It also gave a TGI (LOX IMVI melanoma) of 7.92 µM, a TGI (SF-295 CNS) of 16.5 µM and a TGI (NCI-H226 lung) of 38.1 µM. For the same compound, the TGI (OVCAR-5 ovarian) was > 100 µM, the TGI (KM12 colon) was 4.31 µM and the TGI (DLD-1 colon) was 6.82 µM. It also gave a TGI (RPMI-8226 leukemia) of 23.9 µM, a TGI (COLO 205 colon) of 3.28 µM and a TGI (HOP-92 NSCLC) of 8.88 µM. The TGI (CCRF-CEM leukemia) was 40.2 µM, the TGI (SK-MEL-28 melanoma) was 22 µM and the TGI (SNB-75 CNS) was > 100 µM. For the same compound, the TGI (MOLT-4 leukemia) was 9.56 µM, the TGI (NCI-H460 lung) was 69.1 µM and the TGI (HCC-2998 colon) was 30.2 µM.
